Experimental data published in publication PMC3559838 (PLoS ONE, 2013).

Tests used:
Acidic stability test = type: physicochemical; conditions: for variation in concentrations between beginning and after 24 h: 37°C, acidic solutions pH 2.6–6.5; for stability in acidic solutions: 24 h incubation at 37°C, pH 2.6–6.5
Description: 1 mg/mL of belinostat-G and vorinostat-G was prepared in various vehicles with different pH values. These vehicles included 10 mM ammonium acetate (pH = 6.5), 10 mM ammonium formate (pH = 6.0), 0.1% acetic acid (pH = 3.2) and 0.1% formic acid (pH = 2.6). All of these test samples were incubated at 37°C for 24 h. Milli Q water (pH = 5.5) was used as control solution which was stored in −20°C. All the samples were analyzed by LC-MS/MS to obtain the values of peak area for belinostat-G and vorinostat-G. The acidic stability of both conjugated compounds was evaluated through comparison of peak area ratio of test samples versus control.

HepG2 cells [1] = experiment: Gentian Violet viability staining, 24-well plates; type: cell-based, human; conditions: 0–10 µM, 72 h
Description: (§1) To the other plate, equal molar concentrations of belinostat-G were added similarly. After 72 h, cells were stained with Gentian Violet paint (0.5% w/v; B.P.) and assessed for viability. […] After incubating 24 h, 100-µL drug solution or blank medium was added into each well of 96-well plates. 72 h later, 20 µL of MTS/PES was added into each well for incubation for 3 h. OD values are measured on wavelength 490 nm. Cell growth inhibition was calculated based on the […] with subtraction of background reading for only medium containing wells. The growth inhibition was defined as the percentage of the average […] from drug-treated wells over that from control wells without treatment. The experiment was done in triplicates. IC50 values were calculated using GraphPad PRISM software (GraphPad Software, Inc., La Jolla, CA, USA).

[2] = Pharmacokinetics after 30 min i.v. infusion, phase I trial in hepatocellular carcinoma patients; type: in vivo, human; conditions: for Relative Exposure, Bel-G/Bel AUC ratio: AUC0–24 h molar ratio; for relative systemic exposure of belinostat glucuronide versus belinostat: human plasma, molar concentration AUC ratio
Description: This multicentre phase I trial of belinostat was done in Hong Kong and Singapore. All patients provided written informed consent according to Good Clinical Practice guidelines, and the protocol was approved by the institutional review boards of Prince of Wales Hospital, Hong Kong and National University Hospital, Singapore.
Venous blood samples had been collected in heparinized tubes. Collected blood samples were centrifuged at 3000 g for 10–15 min and the plasma (supernatant) was separated from the cell pellet and stored in plain tubes at –80°C till analysis. […] Briefly, vorinostat-G was used as the internal standard for belinostat-G. The mass spectrometer was operated in positive ion mode with the optimal mass transitions of belinostat-G: m/z 495>93 and vorinostat-G: m/z 441>232, respectively. The analytical method was well validated with good linearity (coefficient of determination, r^2≥0.999) in the range of 1–100 µM for belinostat-G.
Pharmacokinetic parameters were estimated based on non-compartmental analysis model using WinNonlin software version 5.3 (Pharmsight, Sunnyvale, CA, USA). […] One way analysis of variance (ANOVA) was used to determine the significance among the genotypes with Tukey posthoc tests for adjustment for comparison between individual groups. A value of p<0.05 was considered to be significant.

HepG2 cells [3] = experiment: MTS growth inhibition assay; type: cell-based, human; conditions: HepG2, 72 h
Description: as §1

[4] = substrate: O=C(/C=C/c1cccc(S(=O)(=O)Nc2ccccc2)c1)NO; experiment: UGT supersome screening and kinetic analysis; type: in vitro ADME, human; conditions: other: UGT1A1 supersomes, 10 to 750 µM substrate, Michaelis-Menten
Description: Before the addition of substrate, the incubation mixture was prewarmed and equilibrated for 5 min at 37°C. […] The incubation mixture was vortexed and centrifuged (10,060 g) at 4°C for 10 min, and the supernatants were analyzed. Insect microsomes without UGT cDNA served as negative control. […] Incubations were performed as described above. Three independent experiments were performed for kinetic analysis.
Plots of substrate concentration, S (X axis) versus v (Y axis) were then constructed. Km and Vmax were calculated using the Michaelis-Menten equation (GraphPad software, Inc., San Diego, CA, USA).

## O=C(/C=C/c1cccc(S(=O)(=O)Nc2ccccc2)c1)NO[C@@H]1O[C@H](C(=O)O)[C@@H](O)[C@H](O)[C@H]1O [Belinostat-G, Belinostat glucuronide]
Acidic stability test
  variation in concentrations between beginning and after 24 h: < 4%
  stability in acidic solutions: stable
Acidic stability test; pH 2.6, 37°C, 24 h
  degradation: 7%
HepG2 cells [1]
  cytotoxicity / cell viability (staining): did not seem to affect cell viability
[2]; 600 mg/m^2
  Relative Exposure, Bel-G/Bel AUC ratio: 4.79±0.46
[2]; 900 mg/m^2
  Relative Exposure, Bel-G/Bel AUC ratio: 4.22±0.15
[2]; 1200 mg/m^2
  Relative Exposure, Bel-G/Bel AUC ratio: 4.82±1.80
[2]; 1400 mg/m^2
  Relative Exposure, Bel-G/Bel AUC ratio: 4.13±0.68
[2]; listed as belinostat glucuronide
  relative systemic exposure of belinostat glucuronide versus belinostat: more than 4 fold
[2]; listed as belinostat-G
  relative systemic exposure of belinostat glucuronide versus belinostat: 4 fold
HepG2 cells [3]
  IC50 (MTS): cannot be converged

## O=C(CCCCCCC(=O)Nc1ccccc1)NO[C@@H]1O[C@H](C(=O)O)[C@@H](O)[C@H](O)[C@H]1O [vorinostat-G, Vorinostat glucuronide]
Acidic stability test
  variation in concentrations between beginning and after 24 h: < 4%
  stability in acidic solutions: stable

B1: UGT1A1 (Homo sapiens) (protein)
chain: HAGKILLIPVDGSHWLSMLGAIQQLQQRGHEIVVLAPDASLYIRDGAFYTLKTYPVPFQREDVKESFVSLGHNVFENDSFLQRVIKTYKKIKKDSAMLLSGCSHLLHNKELMASLAESSFDVMLTDPFLPCSPIVAQYLSLPTVFFLHALPCSLEFEATQCPNPFSYVPRPLSSHSDHMTFLQRVKNMLIAFSQNFLCDVVYSPYATLASEFLQREVTVQDLLSSASVWLFRSDFVKDYPRPIMPNMVFVGGINCLHQNPLSQEFEAYINASGEHGIVVFSLGSMVSEIPEKKAMAIADALGKIPQTVLWRYTGTRPSNLANNTILVKWLPQNDLLGHPMTRAFITHAGSHGVYESICNGVPMVMMPLFGDQMDNAKRMETKGAGVTLNVLEMTSEDLENALKAVINDKSYKENIMRLSSLHKDRPVEPLDLAVFWVEFVMRHKGAPHLRPAAHDLTWYQYHSLDVIGFLLAVVLTVAFITFKCCAYGYRKCLGKKGRVKKAHKSKTH
notes: purchased BD Gentest
[4]
  Km: 99.6 µM
  Vmax: 353.1 pmol/min/mg protein
  Vmax/Km: 3.5 µL/min/mg protein
